The experiment concerns P388 leukemia ip, CD2F1 mice, survival T/C. As to the kind of experiment: NCI In Vivo Anticancer Drug Screen. Data for tumor model P388 Leukemia (intraperitoneal) in CD2F1 (CDF1) mice. To be noted: endpoint: median survival time, higher = longer survival. In outline: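 Mice carrying the transplanted tumor received test compound or vehicle. Survival was recorded in each group, and the value is the treated-group measurement divided by that of the vehicle-treated control group.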

Setting [1] is: dose: 50.0 mg/kg/injection, schedule: Q01DX005 (ip), vehicle: Klucel (hydroxypropylcellulose) (HPC).
[2] abbreviates: dose: 100.0 mg/kg/injection, schedule: Q01DX005 (ip), vehicle: Klucel (hydroxypropylcellulose) (HPC).
The mark [3] stands for this setting: dose: 60.0 mg/kg/injection, schedule: Q01DX005 (ip), vehicle: saline with Tween-80.
Setting [4] is: dose: 120.0 mg/kg/injection, schedule: Q01DX005 (ip), vehicle: saline with Tween-80.
The mark [5] stands for this setting: dose: 60.0 mg/kg/injection, schedule: Q01DX005 (ip), vehicle: Klucel (hydroxypropylcellulose) (HPC).
Setting [6] is: dose: 120.0 mg/kg/injection, schedule: Q01DX005 (ip), vehicle: Klucel (hydroxypropylcellulose) (HPC).
Setting [7] is: dose: 240.0 mg/kg/injection, schedule: Q01DX005 (ip), vehicle: Klucel (hydroxypropylcellulose) (HPC).

Molecules are shown by their SMILES. Values joined by “and” are separate entries in the source; they are usually repeats but may differ in a detail not shown here. Equal values may be shown once. Inconclusive results and toxic doses are left out. Peptide text beside a SMILES is read from it.

`CCCCCCOC(=O)C(N)Cc1ccc(N(CCCl)CCCl)cc1` (centres undefined): the T/C runs as follows: (dose: 1.28 mg/kg/injection, schedule: Q01DX009 (ip), vehicle: saline) 245 % of control; (dose: 2.55 mg/kg/injection, schedule: Q01DX009 (ip), vehicle: saline) 322 % of control; (dose: 3.2 mg/kg/injection, schedule: Q03HX008 (ip), vehicle: saline) 165 % of control; (dose: 5.1 mg/kg/injection, schedule: Q01DX009 (ip), vehicle: saline) 118 % of control; (dose: 6.4 mg/kg/injection, schedule: Q03HX008 (ip), vehicle: saline) 180 % of control; (dose: 10.2 mg/kg/injection, schedule: Q01DX009 (ip), vehicle: saline) 86 % of control. Besides, the T/C reads like this: (dose: 12.8 mg/kg/injection, schedule: Q03HX008 (ip), vehicle: saline) 295 % of control; (dose: 25.5 mg/kg/injection, schedule: Q03HX008 (ip), vehicle: saline) 600 % of control; (dose: 51.0 mg/kg/injection, schedule: Q03HX008 (ip), vehicle: saline) 600 % of control.

For `C=CCOc1cc2c(cc1C(C)c1ccc(OC)cc1)OCO2` (centres undefined), the T/C by setting is: (dose: 25.0 mg/kg/injection, schedule: Q01DX005 (ip), vehicle: Klucel (hydroxypropylcellulose) (HPC)) 104 % of control and 116 % of control; (dose: 100.0 mg/kg/injection, schedule: Q01DX005 (ip), vehicle: saline with Tween-80) 100 % of control and 109 % of control; (dose: 200.0 mg/kg/injection, schedule: Q01DX005 (ip), vehicle: Klucel + Tween-80) 202 % of control; (dose: 200.0 mg/kg/injection, schedule: Q01DX005 (ip), vehicle: saline with Tween-80) 106 % of control and 112 % of control; (dose: 500.0 mg/kg/injection, schedule: Q01DX001 (ip), vehicle: saline with Tween-80) 96 % of control; (dose: 800.0 mg/kg/injection, schedule: Q01DX005 (ip), vehicle: saline with Tween-80) 184 % of control. Further, under “dose: 1000.0 mg/kg/injection, schedule: Q01DX001 (ip), vehicle: saline with Tween-80”, the T/C is 122 % of control.

Consider `NC(=S)N/N=C/c1cn(-c2ccc([N+](=O)[O-])cc2)cn1`, for which the T/C reads like this: (dose: 25.0 mg/kg/injection, schedule: Q04DX003 (ip), vehicle: Klucel (hydroxypropylcellulose) (HPC)) 86 % of control; (dose: 50.0 mg/kg/injection, schedule: Q04DX003 (ip), vehicle: Klucel (hydroxypropylcellulose) (HPC)) 86 % of control; (dose: 100.0 mg/kg/injection, schedule: Q04DX003 (ip), vehicle: Klucel (hydroxypropylcellulose) (HPC)) 94 % of control.

As for `CN1CCc2c1n(-c1ccccc1)c(=S)n(-c1ccccc1)c2=S`, the T/C reads like this: under setting [1], 107 % of control; under setting [2], 100 % of control; (dose: 200.0 mg/kg/injection, schedule: Q01DX005 (ip), vehicle: Klucel (hydroxypropylcellulose) (HPC)) 98 % of control.

For the molecule `CCOC(=O)CCCCc1cccc2ccccc12`, the T/C (dose: 50.0 mg/kg/injection, schedule: Q01DX009 (ip), vehicle: other) is 103 % of control; the T/C (dose: 100.0 mg/kg/injection, schedule: Q01DX009 (ip), vehicle: other) is 100 % of control; the T/C (dose: 200.0 mg/kg/injection, schedule: Q01DX009 (ip), vehicle: other) was 107 % of control.

Turning to `Cc1cc2nc(CC(=O)c3ccccc3)c(CC(=O)c3ccccc3)nc2cc1C`, the T/C reads like this: (dose: 7.5 mg/kg/injection, schedule: Q01DX005 (ip), vehicle: saline with Tween-80) 98 % of control; (dose: 15.0 mg/kg/injection, schedule: Q01DX005 (ip), vehicle: saline with Tween-80) 95 % of control.

Take `O=C(Cc1ccc([N+](=O)[O-])cc1)ON1C(=O)CCC1=O`: the T/C under setting [3] is 117 % of control and the T/C under setting [4] was 114 % of control.

Consider `C=CCCCCCCCCCSC(=N)N`, for which the T/C reads like this: (dose: 6.25 mg/kg/injection, schedule: Q01DX009 (ip), vehicle: Klucel (hydroxypropylcellulose) (HPC)) 98 % of control; (dose: 12.5 mg/kg/injection, schedule: Q01DX009 (ip), vehicle: Klucel (hydroxypropylcellulose) (HPC)) 93 % of control; (dose: 25.0 mg/kg/injection, schedule: Q01DX009 (ip), vehicle: Klucel (hydroxypropylcellulose) (HPC)) 99 % of control.

Consider `CCn1c(=NC(=O)c2ccccc2O)ccn1C`, for which the T/C runs as follows: under setting [5], 95 % of control; under setting [6], 90 % of control; under setting [7], 88 % of control.

In the case of `Cc1ccc2c(NCCCCCCCCNc3c4ccccc4nc4cc(C)ccc34)c3ccccc3nc2c1`, the T/C (dose: 2.5 mg/kg/injection, schedule: Q01DX009 (ip), vehicle: water) was 150 % of control.

On to `CC1(O)Cn2c(=O)c3cc4ccccc4cc3c(=O)n2CC1(C)Br` (centres undefined), for which the T/C reads like this: (dose: 50.0 mg/kg/injection, schedule: Q04DX002 (ip), vehicle: DMSO) 105 % of control; (dose: 100.0 mg/kg/injection, schedule: Q04DX002 (ip), vehicle: DMSO) 101 % of control; (dose: 200.0 mg/kg/injection, schedule: Q04DX002 (ip), vehicle: DMSO) 101 % of control.

For `COc1ccc(OC)c2c1nc(CBr)n2C`, the T/C reads like this: (dose: 16.25 mg/kg/injection, schedule: Q01DX005 (ip), vehicle: DMSO) 104 % of control; (dose: 32.5 mg/kg/injection, schedule: Q01DX005 (ip), vehicle: DMSO) 93 % of control.

With `CC(C)NCc1ccccc1Sc1ccccc1`, the T/C is 96 % of control (dose: 25.0 mg/kg/injection, schedule: Q01DX001 (ip), vehicle: saline with Tween-80); 104 % of control (dose: 50.0 mg/kg/injection, schedule: Q01DX001 (ip), vehicle: saline with Tween-80); 95 % of control (dose: 100.0 mg/kg/injection, schedule: Q01DX001 (ip), vehicle: saline with Tween-80).

Consider `O=[N+]([O-])c1ccc(Nc2ccccc2[N+](=O)[O-])cc1`, for which the T/C was 94 % of control (dose: 7.5 mg/kg/injection, schedule: Q01DX009 (ip), vehicle: saline with Tween-80); 94 % of control (dose: 15.0 mg/kg/injection, schedule: Q01DX009 (ip), vehicle: saline with Tween-80); 91 % of control (dose: 30.0 mg/kg/injection, schedule: Q01DX009 (ip), vehicle: saline with Tween-80).

Consider `CC1=NNC2(CCCCC2)C1`, for which the T/C (dose: 12.5 mg/kg/injection, schedule: Q01DX009 (ip), vehicle: water) is 113 % of control; the T/C (dose: 25.0 mg/kg/injection, schedule: Q01DX009 (ip), vehicle: water) is 103 % of control; the T/C (dose: 50.0 mg/kg/injection, schedule: Q01DX009 (ip), vehicle: water) was 94 % of control; the T/C (dose: 100.0 mg/kg/injection, schedule: Q01DX009 (ip), vehicle: water) was 111 % of control; the T/C (dose: 200.0 mg/kg/injection, schedule: Q01DX009 (ip), vehicle: water) was 106 % of control.

For the molecule `NC(CC(=O)O)C(=O)NC(CC(=O)O)C(=O)O` (stereo not drawn) (H-Asp-Asp-OH; configuration not given here), the T/C (dose: 50.0 mg/kg/injection, schedule: Q01DX005 (ip), vehicle: saline) was 101 % of control; the T/C (dose: 100.0 mg/kg/injection, schedule: Q01DX005 (ip), vehicle: saline) is 99 % of control; the T/C (dose: 200.0 mg/kg/injection, schedule: Q01DX005 (ip), vehicle: saline) was 97 % of control.

Consider `Cc1ccc2cccc(CC(=O)NN)c2c1`, for which the T/C runs as follows: under setting [3], 104 % of control; under setting [4], 97 % of control.

For the molecule `OC(Cc1cnc2ccccc2c1)(c1ccccc1)c1ccccc1`, the T/C was 111 % of control (dose: 50.0 mg/kg/injection, schedule: Q04DX002 (ip), vehicle: saline with Tween-80); 96 % of control (dose: 100.0 mg/kg/injection, schedule: Q04DX002 (ip), vehicle: saline with Tween-80); 88 % of control (dose: 200.0 mg/kg/injection, schedule: Q04DX002 (ip), vehicle: saline with Tween-80).

Take `COc1cc(C(=O)Oc2c(OC)cc(C(=O)c3cc4c(cc3C)OCO4)cc2OC)cc(OC)c1OC`: the T/C runs as follows: under setting [1], 88 % of control; under setting [2], 88 % of control.

For `Cc1ccc(-n2cnc3sc4c(c3c2=O)CCCC4)cc1`, the T/C was 100 % of control under setting [5], 89 % of control under setting [6] and 90 % of control under setting [7].

Consider `COc1cc(C(c2cc3c(cc2O)OCO3)N2CCCCC2)cc(OC)c1OC` (centres undefined), for which the T/C reads like this: under setting [3], 111 % of control and 118 % of control and 123 % of control; under setting [4], 111 % of control and 118 % of control; (dose: 240.0 mg/kg/injection, schedule: Q01DX005 (ip), vehicle: saline with Tween-80) 103 % of control; (dose: 480.0 mg/kg/injection, schedule: Q01DX005 (ip), vehicle: saline with Tween-80) 118 % of control.

Values taken from PubChem BioAssay AID330 (DTP/NCI, 2004).
